Measurements reported in article PMC6691788, “Design and synthesis of phthalazine-based compounds as potent anticancer agents with potential antiangiogenic activity via VEGFR-2 inhibition” (Journal of Enzyme Inhibition and Medicinal Chemistry, 2019).

Legend:
SNB-19 = assay: NCI 60 cell panel SRB screen; type: cell-based; details: Homo sapiens; SNB-19, single dose 10 μM; read-out: percent cell growth promotion
IGROV1 = assay: NCI 60 cell panel SRB screen; type: cell-based; details: Homo sapiens, IGROV-1; IGROV1, single dose 10 μM; read-out: percent cell growth promotion
CAKI-1 = assay: NCI 60 cell panel SRB screen; type: cell-based, human; details: Homo sapiens; CAKI-1, single dose 10 μM; read-out: percent cell growth promotion
U251 = assay: NCI 60 cell panel SRB screen; type: cell-based; details: Homo sapiens, U-251; U251, single dose 10 μM; read-out: percent cell growth promotion
NCI-H23 = assay: NCI 60 cell panel SRB screen; type: cell-based; details: Homo sapiens; NCI-H23, single dose 10 μM; read-out: percent cell growth promotion
SNB-75 = assay: NCI 60 cell panel SRB screen; type: cell-based; details: Homo sapiens; SNB-75, single dose 10 μM; read-out: percent cell growth promotion
RXF 393 = assay: NCI 60 cell panel SRB screen; type: cell-based; details: Homo sapiens; RXF 393, single dose 10 μM; read-out: percent cell growth promotion
PC-3 = assay: NCI 60 cell panel SRB screen; type: cell-based; details: Homo sapiens; PC-3, single dose 10 μM; read-out: percent cell growth promotion
SK-MEL-28 = assay: NCI 60 cell panel SRB screen; type: cell-based; details: Homo sapiens, SK-MEL-28, read-out: percent cell growth promotion
NCI-H460 = assay: NCI 60 cell panel SRB screen; type: cell-based; details: Homo sapiens; NCI-H460, single dose 10 μM; read-out: percent cell growth promotion
full NCI 60 cell panel = assay: NCI 60 cell panel SRB screen, whole panel; type: cell-based, human
From the text: Aiming to evaluate the general antitumour activity of the synthesised phthalazines, the structures of the final compounds were submitted to National Cancer Institute “NCI” (www.dtp.nci.nih.gov), Bethesda, Maryland, USA. In vitro NCI anticancer screening involves two-stage process, the first stage started with the evaluation of the selected candidates against the full NCI 60 cell lines panel representing leukaemia, non-small cell lung cancer, melanoma, colon, CNS, breast, ovarian, renal and prostate cancers at a single dose of 10 µM. NCI selection is based on degree of structure variation and application of computer modelling techniques to prioritise compounds based on their ability to add diversity to the NCI small molecule compound collection.
Eight compounds (6b, 6e, 7b, 13a, 13c, 16a, 16d and 17a) were selected by NCI for further 5 log dose screening against full NCI 60 cell panel. All the 60 cell lines, representing nine tumour subpanels (leukaemia, non-small cell lung cancer, colon cancer, CNS cancer, prostate cancer, melanoma, ovarian cancer, renal cancer and breast cancer) which were incubated at five different concentrations (0.01, 0.1, 1, 10 and 100 µM) of each of the test compounds. The outcomes were used to create log concentration vs % growth inhibition curves, then three response parameters (GI50, TGI and LC50) were calculated for each cell line, (Tables S4 and S5 in Supplementary material).
The human tumor cell lines of the cancer-screening panel were grown in RPMI 1640 medium containing 5% fetal bovine serum and […] L-glutamine. For a typical screening experiment, cells are inoculated into 96 well microtiter plates in 100 ml at plating densities ranging from 5000 to 40,000 cells/well depending on the doubling time of individual cell lines. After cell inoculation, the microtiter plates are incubated at 37 °C, 5% CO2, 95% air and 100%
relative humidity for 24 h prior to addition of experimental drugs. After 24 h, two plates of each cell line are fixed in situ with TCA, to represent a measurement of the cell population for each cell line at the time of drug addition (Tz). Experimental drugs are dissolved in dimethyl sulfoxide at 400-fold the desired final maximum test concentration and stored frozen prior to use. At the time of drug addition, an aliquot of frozen concentrate is thawed and diluted to twice the desired final maximum test concentration with complete medium containing […] Gentamicin. Additional four, 10-fold or ½log serial dilutions are made to provide a total of five drug concentrations plus control. Aliquots of […] of these different drug dilutions are added to the appropriate microtiter wells already containing 100 ml of medium, resulting in the required final drug concentrations. Following drug addition, the plates are incubated for an additional 48 h at 37 °C, 5% CO2, 95% air, and 100% relative humidity. For adherent cells, the assay is terminated by the addition of cold TCA. Cells are fixed in situ by the gentle addition of […] of cold 50% (w/v) TCA (final concentration,10% TCA) and incubated for 60 min at 4 °C. The supernatant is discarded, and the plates are washed five times with tap water and air dried. Sulforhodamine B (SRB) solution (100 ml) at 0.4% (w/v) in 1% acetic acid is added to each well, and plates are incubated for 10 min at room temperature. After staining, unbound dye is removed by washing five times with 1% acetic acid and the plates are air dried. Bound stain is subsequently dissolved with 10 μM trizma base, and the absorbance is read on an automated plate reader at a wavelength of 515 nm. For suspension cells, the methodology is the same except that the assay is terminated by fixing settled cells at the bottom of the wells by gently adding […] of 80% TCA (final concentration, 16% TCA). […]

SN12C = assay: NCI 60 cell panel SRB screen; type: cell-based; details: Homo sapiens, single dose 10 μM, read-out: percent cell growth promotion
NCI/ADR-RES = assay: NCI 60 cell panel SRB screen; type: cell-based; details: Homo sapiens, single dose 10 μM, read-out: percent cell growth promotion
ACHN = assay: NCI 60 cell panel SRB screen; type: cell-based; details: Homo sapiens, single dose 10 μM, read-out: percent cell growth promotion
SK-OV-3 = assay: NCI 60 cell panel SRB screen; type: cell-based; details: Homo sapiens; SK-OV-3, single dose 10 μM; read-out: percent cell growth promotion
HL-60(TB) = assay: NCI 60 cell panel SRB screen; type: cell-based; details: Homo sapiens, single dose 10 μM, read-out: percent cell growth promotion
T-47D = assay: NCI 60 cell panel SRB screen; type: cell-based; details: Homo sapiens, T47D, read-out: percent cell growth promotion
NCI-H226 = assay: NCI 60 cell panel SRB screen; type: cell-based; details: Homo sapiens; NCI-H226, single dose 10 μM; read-out: percent cell growth promotion

## O=C(Nc1ccc(Nc2nncc3ccccc23)cc1)c1ccc(Cl)cc1 [Compound 5b, 4-Chloro-N-(4-(phthalazin-1-ylamino)phenyl)benzamide]
SNB-19
  activity at 10 µM: 104%
IGROV1
  activity at 10 µM: 102%
CAKI-1
  activity at 10 µM: 94.6%
U251
  activity at 10 µM: 99.5%
NCI-H23
  activity at 10 µM: 98.5%
SNB-75
  activity at 10 µM: 98.1%
RXF 393
  activity at 10 µM: 115%
PC-3
  activity at 10 µM: 91.6%
SK-MEL-28
  activity at 10 µM: 114%
NCI-H460
  activity at 10 µM: 101%
Full NCI 60 cell panel; Homo sapiens, 60 cell, mean over the panel, single dose 10 μM, read-out: Mean percent cell growth promotion
  activity at 10 µM: 101%
Full NCI 60 cell panel; single dose 10 µM
  cell growth inhibition, in words: Neither of the biarylamides (5b, and 5d) nor the piperazines (8a, 8d, 8f, 8g, 8h and 8i) showed any significant cell line growth inhibition
SN12C
  activity at 10 µM: 100%
NCI/ADR-RES
  activity at 10 µM: 103%
ACHN
  activity at 10 µM: 112%
SK-OV-3
  activity at 10 µM: 87.3%
HL-60(TB)
  activity at 10 µM: 103%
T-47D
  activity at 10 µM: 97.6%
NCI-H226
  activity at 10 µM: 77.9%
